Data from ChEMBL document CHEMBL3227940, “Cyclopropylamines as suicide substrates for cytochromes P-450” (J Med Chem, 1979).

Columns and labels:
Format in all cases: ADME
Conditions in all cases: probe aminopyrine
[1] = tested on: cytochrome P450; assay: (§1) Inactivation of cytochrome P450 in rat liver microsomes assessed as inhibition of aminopyrine demethylation at 1 mM preincubated for 12 mins measured 5 mins after substrate addition by Nash reagent based colorimetry (reference value: 0%)
[2] = tested on: cytochrome P450; assay: Inactivation of cytochrome P450 in rat liver microsomes assessed as inhibition of aminopyrine demethylation at 1 mM measured without preincubation by Nash reagent based colorimetry (reference value: 0%)
[3] = tested on: cytochrome P450; assay: Inactivation of cytochrome P450 in rat liver microsomes assessed as inhibition of aminopyrine demethylation at 1 mM preincubated for 12 mins measured 5 mins after substrate addition by Nash reagent based colorimetry in presence of CO/O2 (80:20) (reference value: 0%)
[4] = tested on: cytochrome P450; assay: Inactivation of cytochrome P450 in rat liver microsomes assessed as inhibition of aminopyrine demethylation at 1 mM measured without preincubation by Nash reagent based colorimetry in presence of flavoprotein amine oxidase alternate substrate-inhibitor methimazole (reference value: 0%)
[5] = tested on: cytochrome P450; assay: Inactivation of cytochrome P450 in rat liver microsomes assessed as inhibition of aminopyrine demethylation at 1 mM measured without preincubation by Nash reagent based colorimetry in presence of GSH (reference value: 0%)
[6] = tested on: cytochrome P450; assay: Inactivation of cytochrome P450 in rat liver microsomes assessed as inhibition of aminopyrine demethylation at 1 mM preincubated for 12 mins measured 5 mins after substrate addition by Nash reagent based colorimetry in absence of cofactor NADPH-generating system (reference value: 0%)
[7] = tested on: cytochrome P450; assay: as §1, with “colorimetry in presence of flavoprotein amine oxidase alternate substrate-inhibitor methimazole” for “colorimetry”
[8] = tested on: cytochrome P450; assay: Inactivation of cytochrome P450 in rat liver microsomes assessed as inhibition of aminopyrine demethylation at 1 mM preincubated for 12 mins measured 5 mins after substrate addition by Nash reagent based colorimetry in presence of GSH (reference value: 0%)
[9] = tested on: cytochrome P450; assay: Inactivation of cytochrome P450 in rat liver microsomes assessed as inhibition of aminopyrine demethylation at 0.1 mM preincubated for 12 mins measured 5 mins after substrate addition by Nash reagent based colorimetry (reference value: 0%)

| SMILES | inhibition at 5 min, 1000 µM [1] | also measured |
| --- | --- | --- |
| c1ccc(CN2CCOCC2)cc1 | 34% | inhibition at 1000 µM [2]: 27% |
| c1ccc(CNC2CC2)cc1 | 61% | inhibition at 5 min, 1000 µM [3]: 24%; inhibition at 1000 µM [2]: 29%; inhibition at 1000 µM [4]: 25%; inhibition at 1000 µM [5]: 17%; inhibition at 5 min, 1000 µM [6]: 13%; inhibition at 5 min, 1000 µM [7]: 57%; inhibition at 5 min, 1000 µM [8]: 62% |
| Clc1ccc(CNC2CC2)cc1 | 79% |  |
| CC(C)NCc1ccccc1 | 9% | inhibition at 1000 µM [2]: 9% |
| C(CCNC1CC1)=C1c2ccccc2CCc2ccccc21 |  | inhibition at 5 min, 100 µM [9]: 92% |
| CC(C)NCCC=C1c2ccccc2CCc2ccccc21 |  | inhibition at 5 min, 100 µM [9]: 55% |

The next lines start with results.

| inhibition at 5 min, 1000 µM [1] | SMILES | also measured |
| --- | --- | --- |
| 54% | COc1ccc(CNC2CC2)cc1 |  |
| 77% | Cc1ccc(CNC2CC2)cc1 |  |
| 79% | Brc1ccc(CNC2CC2)cc1 |  |
| 0% | COc1ccc(CNC(C)C)cc1 |  |
| 2% | Cc1ccc(CNC(C)C)cc1 |  |
| 25% | CC(C)NCc1ccc(Cl)cc1 |  |
| 27% | CC(C)NCc1ccc(Br)cc1 |  |
